Counter-ions that a name gives are not always drawn. Peptide text beside a SMILES is read from it. * marks the point of attachment. Cbz = O=C(OCc1ccccc1)*; Boc = CC(C)(C)OC(=O)*
Tested on: Raf-1^gof intestinal tumors
Conditions: for Fold: Table 3 summary of hits, Screen ICCB, luciferase relative to DMSO, fed three consecutive days in vials; for Log2 (fold) (luciferase activity, log2 of the fold difference relative to DMSO controls) / Fold (luciferase activity, fold difference relative to DMSO controls): screen of 480 ICCB compounds in vials, compounds fed to flies with one-day old Raf-1^gof tumors, esg-Gal4 luciferase; for Log2 (fold) (luciferase activity, log2 of the fold difference relative to DMSO controls) / Fold (luciferase activity, fold difference relative to DMSO controls) / Log2 (fold) of luciferase activity relative to DMSO controls / Fold (luciferase activity relative to DMSO controls): assessed three days later; for Fold (luciferase activity, fold difference relative to DMSO controls) / Fold (luciferase activity relative to DMSO controls): averaged from multiple wells; for Log2 (fold) of luciferase activity relative to DMSO controls / Fold (luciferase activity relative to DMSO controls): ICCB compounds fed in vials to flies with one-day old Raf-1^gof tumors
Wherever Fold (luciferase activity relative to DMSO controls) is given: test concentration or dose not given here.
Wherever Fold (luciferase activity, fold difference relative to DMSO controls) is given: test concentration or dose not given here.
Wherever Log2 (fold) (luciferase activity, log2 of the fold difference relative to DMSO controls) is given: test concentration or dose not given here.
Wherever Log2 (fold) of luciferase activity relative to DMSO controls is given: test concentration or dose not given here.

| Compound | Fold | Log2 (fold) (luciferase activity, log2 of the fold difference relative to DMSO controls) | Fold (luciferase activity, fold difference relative to DMSO controls) | Log2 (fold) of luciferase activity relative to DMSO controls | Fold (luciferase activity relative to DMSO controls) |
| --- | --- | --- | --- | --- | --- |
| C/C1=C/C(=O)O[C@@H]2C[C@@H](CC[C@H](C)/C=C\CC1)O[C@@](O)([C@@H]1CSC(=O)N1)C2 [Latrunculin B, reference compound] | 0.478 fold | −1.064 | 0.478 |  |  |
| COCCOC(=O)C1=C(C)NC(C)=C(C(=O)OC(C)C)C1c1cccc([N+](=O)[O-])c1 (stereo not shown) [NIMODIPINE] |  | −0.238 | 0.848 |  |  |
| CC(=O)N[C@@H](CSCC=C(C)CCC=C(C)CCC=C(C)C)C(=O)O [acetyl (N)-s-farnesyl-1-cysteine] |  |  |  | −0.036 | 0.975 fold |
| CC(C)Cn1c(=O)n(C)c(=O)c2[nH]cnc21 [IBMX] |  | −0.297 | 0.814 |  |  |
| CCCNCC(O)COc1ccccc1C(=O)CCc1ccccc1 (stereo not shown) [PROPAFENONE] |  | −0.214 | 0.862 |  |  |
| CCCCC[C@@H](/C=C/C=C\C/C=C\C/C=C\CCCC(=O)O)OO [15(S)-HPETE] |  |  |  | 0.361 | 1.285 fold |
| Cyclo [Cyclo [Arg-Gly-Asp-D-Phe-Val]] |  | −0.221 | 0.858 |  |  |
| CC(C)=CC[C@@H](O)C1=CC(=O)c2c(O)ccc(O)c2C1=O [Shikonin] |  | −0.795 | 0.576 |  |  |
| CCCCCCCCCCCCCC(=O)N[C@H](C)[C@@H](O)c1ccccc1 [MAPP, D-erythro] |  | −0.266 | 0.832 |  |  |
| CCCCC/C=C\C/C=C\C/C=C\CCCCC(=O)O [GAMMA-LINOLENIC ACID (18:3 n-6)] |  |  |  | −0.145 | 0.904 fold |
| COc1cc(/C=C(\C#N)C(N)=O)cc(CSc2nc3ccccc3s2)c1O [tyrphostin AG-825] |  |  |  | −0.042 | 0.972 fold |
| CCN1C[C@]2(COC)[C@H](O)C[C@H](OC)[C@@]34[C@@H]5C[C@@]6(O)[C@H](OC(=O)c7ccccc7)[C@@H]5[C@@](OC(C)=O)([C@@H]([C@H](OC)[C@H]23)[C@@H]14)[C@@H](O)[C@@H]6OC [ACONITINE] |  | −0.278 | 0.825 |  |  |
| COc1cccc2c1cc([N+](=O)[O-])c1c(C(=O)O)cc3c(c12)OCO3 [aristolochic acid, reference compound] | 0.422 fold | −1.243 | 0.422 |  |  |
| CCCCNC(=O)NS(=O)(=O)c1ccc(C)cc1 [TOLBUTAMIDE] |  | −0.494 | 0.710 |  |  |
| CCCCCC=CCC=CCC=CCC1OC1CCCC(=O)O (stereo not shown) [5,6-EPOXYEICOSATRIENOIC ACID] |  |  |  | −0.164 | 0.892 fold |
| CCCCCCCCCCCCCCCCOCC(CO)OC (stereo not shown) [1-HEXADECYL-2-O-METHYL-GLYCEROL] |  | −0.219 | 0.859 |  |  |
| NC(=Nc1ccccc1)NC(=O)c1nc(Cl)c(N)nc1N |  |  |  | 0.088 | 1.063 fold |
| CCCCC[C@H](O)/C=C/[C@@H]1[C@H]2C/C(=C/CCCC(=O)[O-])O[C@H]2C[C@H]1O.[Na+] [PROSTAGLANDIN I2 Na] |  | −0.244 | 0.844 |  |  |
| CCC(C)[C@H](NS(=O)(=O)c1cccc2ccccc12)C(=O)N[C@H](C=O)Cc1c[nH]c2ccccc12 (stereo partly drawn) [NapSul-Ile-Trp-CHO] |  | −0.554 | 0.681 |  |  |
| CCCCCCCCCCCCC/C=C/[C@@H](O)[C@@H](N)CO [SPHINGOSINE] |  |  |  | −0.030 | 0.980 fold |
| Ro 31-8220 |  |  |  | 0.158 | 1.116 fold |
| Ro 20-1724 |  | −0.242 | 0.846 |  |  |
| COC(=O)[C@@H]1[C@H]2C[C@H]3c4[nH]c5ccccc5c4CCN3C[C@@H]2CC[C@@H]1O [yohimbine] |  |  |  | 0.061 | 1.043 fold |

| Compound | Fold | Log2 (fold) (luciferase activity, log2 of the fold difference relative to DMSO controls) | Fold (luciferase activity, fold difference relative to DMSO controls) | Log2 (fold) of luciferase activity relative to DMSO controls | Fold (luciferase activity relative to DMSO controls) |
| --- | --- | --- | --- | --- | --- |
| CC(C)=CCC/C(C)=C/CC/C(C)=C/CSCC(=O)O [FARNESYLTHIOACETIC ACID] |  | −0.295 | 0.815 |  |  |
| CC(C)C[C@@H](C=O)NC(=O)[C@H](CC(C)C)NC(=O)[C@H](CC(C)C)NC(=O)OCc1ccccc1 [MG-132] (Cbz-Leu-Leu-Leu-aldehyde) |  |  |  | 0.097 | 1.070 fold |
| c1ccc(C2CC2)c(OCC2=NCCN2)c1 [CIRAZOLINE] |  |  |  | 0.121 | 1.088 fold |
| Nc1cc(N2CCCCC2)nc(N)[n+]1OS(=O)(=O)[O-] [MINOXIDIL SULFATE] |  | −0.417 | 0.749 |  |  |
| NC(N)=NCCNS(=O)(=O)c1cccc2cnccc12 [HA-1004] |  | −0.372 | 0.773 |  |  |
| Oc1ccc(C=Cc2cc(O)cc(O)c2)cc1 [resveratrol] |  | −0.551 | 0.682 |  |  |
| CCCCCCCCCC(=O)N[C@H](CN1CCOCC1)[C@H](O)c1ccccc1 (racemic) [DL-PDMP] |  |  |  | 0.078 | 1.056 fold |
| O=c1oc(Cl)c(Cl)c2ccccc12 [3,4-dichloroisocoumarin] |  | −0.772 | 0.586 |  |  |
| O=C1CSC(c2ccccc2Cl)c2cc(Cl)ccc2N1 (stereo not shown) [CGP-37157] |  |  |  | −0.195 | 0.873 fold |
| CS(=O)(=O)Nc1ccc([N+](=O)[O-])cc1OC1CCCCC1 [NS-398] |  | −0.592 | 0.663 |  |  |
| CCCCC/C=C\C/C=C\C/C=C\C/C=C\CCCC(=O)O[C@@H](CO)COC(=O)CCCCCCCCCCCCCCCCC [1-STEAROYL-2-ARACHIDONOYL-GLYCEROL] |  | −0.532 | 0.692 |  |  |
| N#Cc1c(-c2ccccc2)no[n+]1[O-] [Furoxan] |  | −0.280 | 0.823 |  |  |
| O=C(O)c1cc([N+](=O)[O-])ccc1NCCCc1ccccc1 [NPPB] |  | −0.439 | 0.738 |  |  |
| CC(C)[C@H](NC(=O)CNC(=O)OC(C)(C)C)C(=O)N[C@H](C=O)C(C)C [Boc-GVV-CHO] (Boc-Gly-Val-Val-aldehyde) |  | −0.696 | 0.617 |  |  |
| OC[C@H]1NC[C@@H](O)[C@@H](O)[C@@H]1O [deoxymannojirimycin(1)] |  |  |  | −0.125 | 0.917 fold |
| Clc1cccc(Nc2nnc(-c3ccccc3)c3ccccc23)c1 [MY-5445] |  |  |  | −0.037 | 0.975 fold |
| O=C(NCC1CCCCN1)c1cc(OCC(F)(F)F)ccc1OCC(F)(F)F (stereo not shown) [FLECAINIDE] |  | −0.253 | 0.839 |  |  |
| C1CCC[C@H]2CCCN3CC[C@@H](CCCCCC[C@@H]4CCCN5CC[C@@H](CC1)O[C@@H]45)O[C@@H]23 [Xestospongin C] |  | −0.456 | 0.729 |  |  |
| CCCCC/C=C\C/C=C\C/C=C\C=C\[C@@H](O)CCCC(=O)O [5(S)-HETE] |  | −0.343 | 0.788 |  |  |
| Cc1ccc(-c2nn(C(C)(C)C)c3ncnc(N)c23)cc1 [PP1] |  |  |  | 0.503 | 1.418 fold |
| CC/C=C\C/C=C\C/C=C\C/C=C\C/C=C\CCCCCC(=O)O [DOCOSAPENTAENOIC ACID] |  |  |  | −0.161 | 0.895 fold |
| CCCCC[C@H](O)/C=C/C=C\C/C=C\C/C=C\CCCC(=O)O [15(S)-HETE] |  | −0.309 | 0.807 |  |  |
| COc1ccc2cc1Oc1ccc(cc1)C[C@H]1c3cc(c(OC)cc3CCN1C)Oc1c(OC)c(OC)cc3c1[C@H](C2)N(C)CC3 [TETRANDRINE] |  | −0.318 | 0.802 |  |  |

— patent publication US20130096067A1, “DROSOPHILA TUMOR STEM CELL MODEL AND USES THEREOF” (priority 2011, published 2013)
